In patent US20220370468A1, “Methods of treating sleep disorders associated with pain” (Astellas Pharma Global Development, Inc., priority 2019, published 2022):

Test system: patients with fibromyalgia
Assay: Phase 2a study: daily fibromyalgia sleep diary (FMSD)
Format: in vivo, human
Details: for Degree of being rested when waking up for the day, change from baseline, LS Mean (SE) / Degree of deep sleep, change from baseline, LS Mean (SE) / Degree of having enough sleep during the previous night, change from baseline, LS Mean (SE) / Difficulty getting comfortable, change from baseline, LS Mean (SE) / Difficulty staying asleep, change from baseline, LS Mean (SE) / Difficulty with beginning the day, change from baseline, LS Mean (SE) / Difficulty with falling asleep, change from baseline, LS Mean (SE) / Restlessness of sleep, change from baseline, LS Mean (SE): FAS, 15 mg
From the text: In some embodiments, the clinical score is a score for one or more FMSD (fibromyalgia sleep diary) items. The FMSD (Kleinman et al., 2014) is a validated 8-item patient-reported outcome that assesses sleep disturbances specific to patients with fibromyalgia across the domains of falling asleep, staying asleep, and sufficient sleep (Kleinman et al., 2014). Each day upon waking, patients rated their sleep quality over the previous night on an 11-point numerical integer rating scale (NRS). Each item is rated on an 11-point NRS, ranging from 0, which corresponds to “not at all”, to 10, which corresponds to “extremely.” FMSD items include: • difficulty with falling asleep (improvement shown as a decrease in measurement); • restlessness of sleep (improvement shown as a decrease in measurement); • difficulty getting comfortable (improvement shown as a decrease in measurement); • difficulty staying asleep (improvement shown as a decrease in measurement); • degree of deep sleep (improvement shown as an increase in measurement); • degree of being rested when waking up for the day (improvement shown as an increase in measurement); • difficulty with beginning the day (improvement shown as a decrease in measurement); and • degree of having enough sleep during the previous night (improvement shown as an increase in measurement). A phase 2a, randomized, double-blind, placebo-controlled, parallel group study was conducted at 24 sites in the United States to assess the analgesic efficacy and safety of the compound of Formula (I) in patients with fibromyalgia. The study consisted of the following: a screening period of up to 42 days, which included a washout period and a 7-day baseline diary run-in; a 57-day double-blind randomized treatment period with site visits at Days 1, 15, 29, and 57; and a 4-week follow-up period consisting of a clinic visit after 2 weeks and a phone call after 4 weeks. The study was carried out in accordance with the Declaration of Helsinki and approved by the relevant Institutional Review Boards. All participants provided written informed consent prior to the initiation of any study procedures. Male and female patients aged 18 to 80 years were included in the trial if they met the American College of Rheumatology (ACR) 1990 and 2010 fibromyalgia diagnostic criteria at screening (Wolfe et al., 1990; Wolfe et al., 2010b). The core diagnostic criteria for fibromyalgia are defined by the 1990 criteria (Wolfe et al., 1990), and while ACR has published newer criteria, the 1990 version is still commonly utilized in clinical trials. To meet ACR 1990 criteria, patients must have had widespread pain for at least 3 months, defined as the presence of pain on the right and left sides of the body, pain above and below the waist, and pain in the axial skeleton (cervical spine, anterior chest, thoracic spine, or low back) (Wolfe et al., 1990). They must also have had pain in at least 11 of 18 tender point sites on digital palpation performed with an approximate force of 4 kg. To meet the ACR 2010 criteria, patients needed to have a widespread pain index (WPI) score of ≥7 and a symptom severity (SS) scale score ≥5, or a WPI score 3-6 and an SS scale score ≥9 (Wolfe et al., 2010b). Symptoms must have been present at a similar level for at least 3 months and patients must have been free of any other disorder that could have explained the pain. […] Eligible patients were randomized 1:1 using Interactive Response Technology to receive oral Compound of Formula (I) 15 mg (three capsules of 5 mg) or matching placebo capsules, each given once daily in the morning, with or without food, for 8 weeks. Sleep disturbance was assessed as an exploratory endpoint using change from baseline to each respective week (Weeks 1-8) and from baseline to EOT in daily fibromyalgia sleep diary (FMSD) responses (Kleinman et al., 2014). […]

## Cc1sc2cc(Cl)ccc2c1-c1ccc(N2CCO[C@H](CNC3CCC3)C2)c(C(=O)O)c1 [Compound of Formula (I)]
EOT (LOCF), ANCOVA, 1-sided p 0.008
  Difficulty with falling asleep, Treatment Difference (SE) (Compound of Formula (I) - placebo): −0.61 (0.25)
EOT (LOCF), ANCOVA, 1-sided p 0.009
  Restlessness of sleep, Treatment Difference (SE) (Compound of Formula (I) - placebo): −0.56 (0.23)
EOT (LOCF), ANCOVA, 1-sided p 0.044
  Difficulty with beginning the day, Treatment Difference (SE) (Compound of Formula (I) - placebo): −0.42 (0.25)
EOT (LOCF), ANCOVA, 1-sided p 0.054
  Difficulty getting comfortable, Treatment Difference (SE) (Compound of Formula (I) - placebo): −0.35 (0.22)
EOT (LOCF), ANCOVA, 1-sided p 0.100
  Degree of having enough sleep during the previous night, Treatment Difference (SE) (Compound of Formula (I) - placebo): 0.32 (0.25)
EOT (LOCF), ANCOVA, 1-sided p 0.158
  Difficulty staying asleep, Treatment Difference (SE) (Compound of Formula (I) - placebo): −0.22 (0.22)
EOT (LOCF), ANCOVA, 1-sided p 0.240
  Degree of deep sleep, Treatment Difference (SE) (Compound of Formula (I) - placebo): 0.16 (0.22)
EOT (LOCF), ANCOVA, 1-sided p 0.337
  Degree of being rested when waking up for the day, Treatment Difference (SE) (Compound of Formula (I) - placebo): 0.10 (0.24)
EOT (LOCF), ANCOVA
  Degree of being rested when waking up for the day, change from baseline, LS Mean (SE): 0.78 (0.17)
  Degree of deep sleep, change from baseline, LS Mean (SE): 0.60 (0.16)
  Degree of having enough sleep during the previous night, change from baseline, LS Mean (SE): 1.09 (0.18)
  Difficulty getting comfortable, change from baseline, LS Mean (SE): −1.27 (0.16)
  Difficulty staying asleep, change from baseline, LS Mean (SE): −1.08 (0.16)
  Difficulty with beginning the day, change from baseline, LS Mean (SE): −0.91 (0.18)
  Difficulty with falling asleep, change from baseline, LS Mean (SE): −1.41 (0.18)
  Restlessness of sleep, change from baseline, LS Mean (SE): −1.50 (0.17)
Week 8, MMRM, 1-sided p 0.018
  Difficulty with falling asleep, Treatment Difference (SE) (Compound of Formula (I) - placebo): −0.56 (0.26)
Week 8, MMRM, 1-sided p 0.033
  Restlessness of sleep, Treatment Difference (SE) (Compound of Formula (I) - placebo): −0.48 (0.26)
Week 8, MMRM, 1-sided p 0.070
  Difficulty with beginning the day, Treatment Difference (SE) (Compound of Formula (I) - placebo): −0.39 (0.26)
Week 8, MMRM, 1-sided p 0.131
  Degree of having enough sleep during the previous night, Treatment Difference (SE) (Compound of Formula (I) - placebo): 0.30 (0.27)
Week 8, MMRM, 1-sided p 0.167
  Difficulty getting comfortable, Treatment Difference (SE) (Compound of Formula (I) - placebo): −0.23 (0.23)
Week 8, MMRM, 1-sided p 0.275
  Difficulty staying asleep, Treatment Difference (SE) (Compound of Formula (I) - placebo): −0.14 (0.24)
Week 8, MMRM, 1-sided p 0.331
  Degree of deep sleep, Treatment Difference (SE) (Compound of Formula (I) - placebo): 0.11 (0.24)
Week 8, MMRM, 1-sided p 0.432
  Degree of being rested when waking up for the day, Treatment Difference (SE) (Compound of Formula (I) - placebo): 0.04 (0.25)
Week 8, MMRM
  Degree of being rested when waking up for the day, change from baseline, LS Mean (SE): 0.74 (0.18)
  Degree of deep sleep, change from baseline, LS Mean (SE): 0.55 (0.17)
  Degree of having enough sleep during the previous night, change from baseline, LS Mean (SE): 1.10 (0.19)
  Difficulty getting comfortable, change from baseline, LS Mean (SE): −1.24 (0.17)
  Difficulty staying asleep, change from baseline, LS Mean (SE): −1.09 (0.17)
  Difficulty with beginning the day, change from baseline, LS Mean (SE): −0.89 (0.19)
  Difficulty with falling asleep, change from baseline, LS Mean (SE): −1.46 (0.19)
  Restlessness of sleep, change from baseline, LS Mean (SE): −1.53 (0.19)
Beginning at Week 2, P=0.032
  FMSD difficulty with falling asleep versus placebo: Statistically significant improvements
Beginning at Week 3, P=0.007
  FMSD difficulty getting comfortable versus placebo: Statistically significant improvements
Beginning at Week 3, P=0.013
  FMSD difficulty staying asleep versus placebo: Statistically significant improvements
  FMSD restlessness of sleep versus placebo: Statistically significant improvements
Beginning at Week 6, P=0.035
  FMSD degree of deep sleep versus placebo: Statistically significant improvements
Beginning at Week 6, P=0.040
  FMSD difficulty with beginning the day versus placebo: Statistically significant improvements
